From ChEMBL document CHEMBL1158247, “Isolation of Isodrimenediol, a Possible Intermediate of Drimane Biosynthesis from Polyporus arcularius” (1996) come the findings set out here.

Assay [1] has as its system Sporobolomyces salmonicolor. Description: Antimicrobial activity against Sporobolomyces salmonicolor 549 by agar diffusion method. It is filed as functional.
In assay [2] the test system is Staphylococcus aureus. Description: Antimicrobial activity against Staphylococcus aureus SG511 by agar diffusion method. The class given is functional.

Converted amounts (≈) assume the structure as drawn.

As for `C=C1CC[C@H]2C(C)(C)[C@@H](O)CC[C@]2(C)[C@H]1CO` [ISODRIMENEDIOL], the minimum inhibitory concentration (MIC) in assay [1] was 5 µg/mL (≈ 21 µM); in assay [2], 10 µg/mL (≈ 42 µM).
